Laboratory results: ChEMBL document CHEMBL1122784, “Antitumor imidazotetrazines. 1. Synthesis and chemistry of 8-carbamoyl-3-(2-chloroethyl)imidazo[5,1-d]-1,2,3,5-tetrazin-4(3 H)-one , a novel broad-spectrum antitumor agent” (J Med Chem, 1984)

Experiments:
[1] = Half-life period in phosphate buffer at pH 7.4 in the dark at 28 degrees celsius.; format: ADME
Mus musculus [2] = test: Compound was tested for mortality in L1210 leukemia implanted BDF1 mice on day 0 after ip administration of 10 mg/kg/day on day 1 out of 5 mice; format: functional; details: route intraperitoneal
Mus musculus [3] = test: Compound was evaluated for %T/C in L1210 leukemia implanted BDF1 mice on day 0 after ip administration of 20 mg/kg/day on days 1-5; format: functional; details: route intraperitoneal
Mus musculus [4] = test: Compound was evaluated for %T/C in L1210 leukemia implanted BDF1 mice on day 0 after ip administration of 25 mg/kg/day on day 1-9; format: functional; details: route intraperitoneal
Mus musculus [5] = test: Compound was evaluated for %T/C in L1210 leukemia implanted BDF1 mice on day 0 after ip administration of 40 mg/kg/day on day 1; format: functional; details: route intraperitoneal
Mus musculus [6] = test: Compound was evaluated for %T/C in L1210 leukemia implanted BDF1 mice on day 0 after ip administration of 5 mg/kg/day on day 1; format: functional; details: route intraperitoneal
Mus musculus [7] = test: Compound was evaluated for %T/C in L1210 leukemia implanted BDF1 mice on day 0 after ip administration of 5 mg/kg/day on day 1-5; format: functional; details: route intraperitoneal
Mus musculus [8] = test: Compound was evaluated for %T/C in P388 leukemia implanted BDF1 mice on day 0 after ip administration of 12.5 mg/kg/day on day 1-5; format: functional; details: route intraperitoneal
Mus musculus [9] = test: Compound was evaluated for %T/C in P388 leukemia implanted BDF1 mice on day 0 after ip administration of 20 mg/kg/day on day 1-5; format: functional; details: route intraperitoneal
Mus musculus [10] = test: Compound was evaluated for %T/C in P388 leukemia implanted BDF1 mice on day 0 after ip administration of 40 mg/kg/day on day 1; format: functional; details: route intraperitoneal
Mus musculus [11] = test: Compound was evaluated for %T/C in P388 leukemia implanted BDF1 mice on day 0 after ip administration of 5 mg/kg/day on day 1; format: functional; details: route intraperitoneal
Mus musculus [12] = test: Compound was evaluated for %T/C in P388 leukemia implanted BDF1 mice on day 0 after ip administration of 5 mg/kg/day on day 1-5; format: functional; details: route intraperitoneal
Mus musculus [13] = test: Compound was evaluated for number of survivors in L1210 leukemia implanted BDF1 mice on day 0 after ip administration of 12.5 mg/kg/day on day 60 out of 6 mice; format: functional; details: route intraperitoneal
Mus musculus [14] = test: Compound was evaluated for number of survivors in L1210 leukemia implanted BDF1 mice on day 0 after ip administration of 25 mg/kg/day on day 60 out of 6 mice; format: functional; details: route intraperitoneal
Mus musculus [15] = test: Compound was evaluated for number of survivors in L1210 leukemia implanted BDF1 mice on day 0 after ip administration of 5 mg/kg/day on day 60 out of 5 mice; format: functional; details: route intraperitoneal
Mus musculus [16] = test: Compound was tested for mortality in L1210 leukemia implanted BDF1 mice on day 0 after ip administration of 20 mg/kg/day on day 1 out of 5 mice; format: functional; details: route intraperitoneal
Mus musculus [17] = test: Compound was evaluated for %T/C in L1210 leukemia implanted BDF1 mice on day 0 after ip administration of 3.12 mg/kg/day on day 1-9; format: functional; details: route intraperitoneal
Mus musculus [18] = test: Compound was evaluated for %T/C in L1210 leukemia implanted BDF1 mice on day 0 after ip administration of 2.5 mg/kg/day on day 1-5; format: functional; details: route intraperitoneal
Mus musculus [19] = test: Compound was evaluated for %T/C in L1210 leukemia implanted BDF1 mice on day 0 after ip administration of 20 mg/kg/day on day 1; format: functional; details: route intraperitoneal
Mus musculus [20] = test: Compound was tested for mortality in P388 leukemia implanted BDF1 mice on day 0 after ip administration of 80 mg/kg/day on day 1 out of 5 mice; format: functional; details: route intraperitoneal
Mus musculus [21] = test: Compound was tested for mortality in P388 leukemia implanted BDF1 mice on day 0 after ip administration of 12.5 mg/kg/day on day 1-5 out of 6 mice; format: functional; details: route intraperitoneal
Mus musculus [22] = test: Compound was tested for mortality in P388 leukemia implanted BDF1 mice on day 0 after ip administration of 2.5 mg/kg/day on day 1-5 out of 5 mice; format: functional; details: route intraperitoneal
Mus musculus [23] = test: Compound was tested for mortality in P388 leukemia implanted BDF1 mice on day 0 after ip administration of 20 mg/kg/day on day 1-5 out of 5 mice; format: functional; details: route intraperitoneal
Mus musculus [24] = test: Compound was tested for mortality in P388 leukemia implanted BDF1 mice on day 0 after ip administration of 25 mg/kg/day on day 1-5 out of 6 mice; format: functional; details: route intraperitoneal
Mus musculus [25] = test: Compound was tested for mortality in P388 leukemia implanted BDF1 mice on day 0 after ip administration of 5 mg/kg/day on day 1 out of 5 mice; format: functional; details: route intraperitoneal
Mus musculus [26] = test: Compound was tested for mortality in P388 leukemia implanted BDF1 mice on day 0 after ip administration of 6.25 mg/kg/day on day 1-5 out of 6 mice; format: functional; details: route intraperitoneal
Mus musculus [27] = test: Compound was tested for mortality in L1210 leukemia implanted BDF1 mice on day 0 after ip administration of 25 mg/kg/day on day 1-9 out of 6 mice; format: functional; details: route intraperitoneal
Mus musculus [28] = test: Compound was tested for mortality in L1210 leukemia implanted BDF1 mice on day 0 after ip administration of 50 mg/kg/day on day 1-9 out of 6 mice; format: functional; details: route intraperitoneal
Mus musculus [29] = test: Compound was tested for mortality in L1210 leukemia implanted BDF1 mice on day 0 after ip administration of 6.25 mg/kg/day on day 1-9 out of 6 mice; format: functional; details: route intraperitoneal
Mus musculus [30] = test: Compound was tested for mortality in L1210 leukemia implanted BDF1 mice on day 0 after ip administration of 7.5 mg/kg/day on day 1-5 out of 5 mice; format: functional; details: route intraperitoneal
Mus musculus [31] = test: Compound was tested for mortality in P388 leukemia implanted BDF1 mice on day 0 after ip administration of 10 mg/kg/day on day 1 out of 5 mice; format: functional; details: route intraperitoneal
Mus musculus [32] = test: Compound was evaluated for number of survivors in L1210 leukemia implanted BDF1 mice on day 0 after ip administration of 7.5 mg/kg/day on day 60 out of 5 mice; format: functional; details: route intraperitoneal
Mus musculus [33] = test: Compound was evaluated for number of survivors in L1210 leukemia implanted BDF1 mice on day 0 after ip administration of 80 mg/kg/day on day 60 out of 5 mice; format: functional; details: route intraperitoneal
Mus musculus [34] = test: Compound was evaluated for number of survivors in P388 leukemia implanted BDF1 mice on day 0 after ip administration of 12.5 mg/kg/day on day 60 out of 6 mice; format: functional; details: route intraperitoneal
Mus musculus [35] = test: Compound was evaluated for number of survivors in P388 leukemia implanted BDF1 mice on day 0 after ip administration of 2.5 mg/kg/day on day 60 out of 5 mice; format: functional; details: route intraperitoneal
Mus musculus [36] = test: Compound was evaluated for number of survivors in P388 leukemia implanted BDF1 mice on day 0 after ip administration of 20 mg/kg/day on day 60 out of 5 mice; format: functional; details: route intraperitoneal
Mus musculus [37] = test: Compound was evaluated for number of survivors in P388 leukemia implanted BDF1 mice on day 0 after ip administration of 6.25 mg/kg/day on day 60 out of 6 mice; format: functional; details: route intraperitoneal
Mus musculus [38] = test: Compound was evaluated for number of survivors in L1210 leukemia implanted BDF1 mice on day 0 after ip administration of 20 mg/kg/day on day 60 out of 5 mice; format: functional; details: route intraperitoneal
Mus musculus [39] = test: Compound was tested for mortality in P388 leukemia implanted BDF1 mice on day 0 after ip administration of 10 mg/kg/day on day 1-5 out of 5 mice; format: functional; details: route intraperitoneal

Q: With `NC(=O)c1ncn2c(=O)n(CCCl)nnc12` [MITOZOLOMIDE] as the molecule, how does the half-life [1] read?
A: 1.63 h

Q: What about the Mortality (Mus musculus [2]) of the same molecule?
A: 0

Q: And the T/C (Mus musculus [3])?
A: >577%

Q: What about the T/C (Mus musculus [4]) of the same molecule?
A: >745%

Q: What about the T/C (Mus musculus [5]) of the same molecule?
A: >740%

Q: What about the T/C (Mus musculus [6]) of the same molecule?
A: 111%

Q: And the T/C (Mus musculus [7])?
A: 139%

Q: And the T/C (Mus musculus [8])?
A: 275%

Q: What about the T/C (Mus musculus [9]) of the same molecule?
A: >555%

Q: And the T/C (Mus musculus [10])?
A: >600%

Q: And the T/C (Mus musculus [11])?
A: 132%

Q: And the T/C (Mus musculus [12])?
A: 277%

Q: And the Survivors (Mus musculus [13])?
A: 6

Q: What about the Survivors (Mus musculus [14]) of the same molecule?
A: 6

Q: What about the Survivors (Mus musculus [15]) of the same molecule?
A: 0

Q: What about the Mortality (Mus musculus [16]) of the same molecule?
A: 0

Q: What about the T/C (Mus musculus [17]) of the same molecule?
A: 147%

Q: And the T/C (Mus musculus [18])?
A: 112%

Q: And the T/C (Mus musculus [19])?
A: 198%

Q: What about the Mortality (Mus musculus [20]) of the same molecule?
A: 0

Q: What about the Mortality (Mus musculus [21]) of the same molecule?
A: 0

Q: And the Mortality (Mus musculus [22])?
A: 0

Q: What about the Mortality (Mus musculus [23]) of the same molecule?
A: 0

Q: And the Mortality (Mus musculus [24])?
A: 0

Q: What about the Mortality (Mus musculus [25]) of the same molecule?
A: 0

Q: And the Mortality (Mus musculus [26])?
A: 1

Q: What about the Mortality (Mus musculus [27]) of the same molecule?
A: 0

Q: And the Mortality (Mus musculus [28])?
A: 0

Q: What about the Mortality (Mus musculus [29]) of the same molecule?
A: 0

Q: And the Mortality (Mus musculus [30])?
A: 0

Q: And the Mortality (Mus musculus [31])?
A: 0

Q: What about the Survivors (Mus musculus [32]) of the same molecule?
A: 0

Q: And the Survivors (Mus musculus [33])?
A: 0

Q: What about the Survivors (Mus musculus [34]) of the same molecule?
A: 1

Q: And the Survivors (Mus musculus [35])?
A: 0

Q: What about the Survivors (Mus musculus [36]) of the same molecule?
A: 5

Q: What about the Survivors (Mus musculus [37]) of the same molecule?
A: 0

Q: And the Survivors (Mus musculus [38])?
A: 1

Q: What about the Mortality (Mus musculus [39]) of the same molecule?
A: 0
